According to PMC10606834, “Is the Neuropeptide PEN a Ligand of GPR83?” (International Journal of Molecular Sciences, 2023):

Legend:
[1] = tested on: GPR83 and GPR83del, with or without HA tag (HEK293 cells; wild-type HEK293 as comparison); experiment: Competitive radioligand binding assay, GPR83; parameters: species or system human; conditions: pH 7.4, 2 h; for radioligand binding signal: 100,000 cpm 125I-labelled peptide, wild-type HEK293 and HEK293 expressing full-length or deletion variant GPR83, with or without HA tag
From the text: One of the most proven methods for quantitatively analyzing the interaction of biomolecules is the competitive radioligand binding assay. […] To safeguard against possible interference of the added Tyr with ligand–receptor binding, two peptides were created and are as follows: one with the Tyr on the aminoterminal end (Tyr-PEN), and the other with Tyr added on the carboxyterminus (PEN-Tyr). Radiolabeled ^125I-PEN-Tyr and ^125I-Tyr-PEN were then used on wild-type HEK293 cells and HEK293 cells expressing various forms of GPR83 (full-length or deletion variant, with or without HA tag) in competition with different concentrations of natural PEN or Tyr-PEN, ranging from 1 pM to 1 µM.
Figure 5 HEK293 wild-type cells and HEK293 cells overexpressing various forms of GPR83 were used in radioligand binding assays with two different radioactively labeled PEN peptides: [^125I]-Tyr-PEN or [^125I]-PEN-Tyr. (A) Radioligand [^125I]-PEN-Tyr in competition with unlabeled wild-type PEN. (B) Radioligand [^125I]-Tyr-PEN in competition with unlabeled wild-type PEN. (C) Radioligand [^125I]-PEN-Tyr in competition with unlabeled wild-type PEN. (D) Radioligand [^125I]-Tyr-PEN in competition with Tyr-PEN. […]
Two variants of human PENs were utilized for radioiodination in this study: one with a tyrosine added at the aminoterminal end (Tyr-PEN: […]-NH2), and one with an additional tyrosine attached to the carboxyterminal end (PEN-Tyr: […]-NH2). Both were labelled with ^125I using the chloramine-T method. Chloramine-T and sodium metabisulfite solutions were freshly prepared in water. For labelling, 10 µL of peptide (stock 1 mM) with 15 µL of sodium phosphate buffer (0.5 M, pH 7.6) was mixed with 37 MBq carrier-free Na^125I (NEZ033L010MC, Perkin Elmer, Waltham, MA, USA). A 4 μL volume of chloramine T (1 mg/mL) was added to start the reaction, and after 30 s, 4 μL sodium metabisulfite (2 mg/mL) was added to stop the iodination. The labeled radioactive peptide was separated from unlabeled peptide with HPLC purification (Agilent ZORBAX 300 Extend-C18 column) using a gradient from 20–50% acetonitrile (+0.1% TFA) against water (+0.1% TFA) for 20 min. To determine the retention time of the radioactive peptide, 1–2 µL of the reaction mixture was analyzed before the purification run. The fraction containing the radiolabeled peptide peak was then collected, diluted with binding buffer to prevent radioautolysis, aliquoted, and stored at −80 °C.
4.10. Radioligand Binding Assay
For competitive radioligand binding assay, approximately 50,000 cells/well were seeded in a 96-well plate incubated overnight at 37 °C. Next day, cells were incubated in binding buffer (50 mM HEPES pH 7.4, 5 mM MgCl2, 1 mM CaCl2, 0.5% BSA, cOmplete protease inhibitors) containing 100,000 counts per minute of ^125I-labelled peptide, with increasing concentrations of unlabeled peptide. After 2 h of incubation, cells were washed for 2–3 times with ice-cold washing buffer (50 mM Tris-HCl, pH 7.4, 125 mM NaCl, 0.05% BSA) and lysed with 1 N NaOH (80 µL/well). The lysed cells were transferred to vials and measured in a gamma counter (Wallac 1470 Wizard, Perkin Elmer, Waltham, MA, USA). Obtained cpm values were plotted with GraphPad Prism 7, and the data were fitted using nonlinear regression (one site—fit Ki, one site—fit logIC50).

[2] = tested on: ERK1/2 phosphorylation in HEK293 cells overexpressing GPR83 or GPR83del; experiment: ERK1/2 phosphorylation (immunoblot), GPR83 cells; format: cell-based, human; conditions: 15 min; for phosphorylation of ERK1/2: 10 µM PEN #1, 100 ng/mL EGF or 200 nM PMA, HEK293 overexpressing GPR83 or GPR83del as well as wild-type HEK293, n = 2 independent experiments
From the text: Apart from G protein-mediated second messenger signaling via Ca^2+ and cAMP, GPCR stimulation may also lead to activation of β-arrestin and phosphorylation of extracellular signal-regulated kinases 1/2 (ERK1/2). Immunoblot analysis was employed to investigate ligand-dependent phosphorylation of ERK1/2 in HEK293 cells overexpressing GPR83 or the deletion variant GPR83del as well as in wild-type HEK293 cells.
Figure 4 Ligand-dependent phosphorylation of ERK1/2 and β-arrestin (TANGO) assay. (A) Immunoblot detection of phosphorylated (upper blot) and total (lower blot) ERK1/2 in lysates of HEK293 wild-type cells and in HEK293 cells overexpressing GPR83 or GPR83del. (B) Quantification (mean ± SD of n = 2 independent experiments) of chemiluminescent readout of the immunoblots shown in (A). (C) TANGO assay for ligand-induced β-arrestin activity in HTLA cells overexpressing GPR83 (relative light units, RLU). (D) TANGO assay for ligand-induced β-arrestin activity in HTLA cells overexpressing bradykinin receptor BDKBR2.
4.7. ERK1/2 Phosphorylation Assay
Effects of GPCR ligands on MAPK signaling were assessed with Western blot analysis of lysates from stimulated cells. The ERK1/2 activation assay was performed as described before. Briefly, 50,000 cells per well were seeded onto adherent 6-well plates and cultured until cells were 80% confluent. After incubation with ligands (10 µM PEN #1 and 100 ng/mL EGF or 200 nM PMA in 0.1% FCS/DMEM) for 15 min, cells were lysed using 200 µL/well cell lysis buffer (100 mM Tris-HCl pH 8.8, 1% SDS) and protease inhibitors (cOmplete, Roche, Basel, Switzerland) on ice for one hour. Immunolabeling was realized using the rabbit monoclonal primary antibody anti-phospho-ERK1/2 Thr^202/Tyr^204 (#4370, Cell Signaling Technologies, Danvers, MA, USA, 1:2000), or anti-total ERK1/2 (#05-1152; Millipore, Burlington, VT, USA; 1:2000), respectively. Blots were analyzed using densitometric quantification using Image Lab Software v4.1 (Bio-Rad).

[3] = tested on: GPR83 and GPR83del (HEK293 and U2OS clones; wild-type cells as comparison); experiment: Ligand-dependent cAMP formation; format: cell-based, human; conditions: 1 µM PEN or 50 µM forskolin, GPR83-overexpressing clones and wild-type HEK293 and U2OS cells, 10 min incubation, LANCE Ultra cAMP kit, TR-FRET competition, duplicate
Protocol: Production of cyclic adenosine monophosphate (cAMP) is a hallmark of GPCRs signaling via the Gs-induced pathway. To investigate the potential of PEN to stimulate cAMP production mediated by GPR83, levels of the second messenger were determined after incubation with PEN of various GPR83-overexpressing clones as well as wild-type HEK293 and U2OS cells.
Figure 3 Analysis of ligand-dependent, GPR83-mediated cAMP production. (A) Wild-type HEK293 and U2OS cells as well as various clones with confirmed overexpression of either GPR83 or the deletion variant GPR83del (both ± HA tag) were incubated with either buffer, 1 µM PEN, or 50 µM forskolin. (B) Selected GPR83-overexpressing HEK293 clones were assayed for cAMP production using different concentrations of PEN. (C) Selected GPR83-overexpressing U2OS clones were assayed for cAMP production using different concentrations of PEN.
To measure intracellular cAMP production, the LANCE Ultra cAMP kit (Perkin Elmer) was used according to the manufacturer’s instructions. The day before the experiment, cells were seeded onto a 96-well plate with approximately 80% confluence. After 16–24 h, the medium was removed, and 100 μL/well of serum-free medium was added, followed by a 3 h incubation. Thereafter, medium was removed, and 40 μL of ligand dissolved in cAMP stimulation buffer was pipetted onto cells, then incubated for 10 min. The ligands used were pipetted in duplicate. For concentration–response curves, serial dilutions were carried out from the stock solutions of 1 mM to create a concentration range from 1 µM to 30 pM. As controls, 4 wells were treated with buffer only (negative control) and 4 wells with 50 μM forskolin (positive control). After a 10 min incubation, 10 μL of a 0.5% Triton-X 100 solution in PBS was added to each well. To lyse cells, the plate was shaken on a Vibramax 100 Shaker (Heidolph, Kelheim, Germany) (750 rpm) at room temperature for 10 min. A 10 μL volume of the cell lysates were transferred into a white 384 well plate (ProxiPlate, PerkinElmer). A 5 μL volume of the Europium-cAMP tracer (1 to 50 dilution of Eu-tracer stock in cAMP detection buffer) was added to each well. Next, 5 μL of the ULight-anti-cAMP solution (1 to 150 dilution of ULight-tracer stock in cAMP detection buffer) was added to each well. After a 1 h incubation period at room temperature in the dark, the TR-FRET signal was measured using an EnVision 2103 Multilabel Reader (Perkin Elmer).

Row | Compound | radioligand binding signal [1] | phosphorylation of ERK1/2 [2] | other results
1 | ^125I-PEN-Tyr: PEN-Tyr labelled with 125I using the chloramine-T method | neither of these different assay conditions led to a PEN-GPR83 binding signal above background | – | –
2 | EGF: positive control, epithelial growth factor (as printed) (NSDSECPLSHDGYCLHDGVCMYIEALDKYACNCVVGYIGERCQYRDLKWWELR; Epidermal growth factor; UniProt P01133 971-1023, looked up) | – | substantially induced phosphorylation of ERK1/2 | phosphorylation of ERK1/2, rank of response ([2]; 100 ng/mL EGF, compared with PEN and PMA, n = 2): strongest response
3 | C=C[C@@]1(C)CC(=O)[C@]2(O)[C@@]3(C)[C@@H](O)CCC(C)(C)[C@@H]3[C@H](O)[C@H](OC(C)=O)[C@@]2(C)O1 [forskolin, reference compound] | – | – | cAMP levels [3]: strongly increased cAMP levels; cAMP levels ([3]; listed as Forskolin): strong induction of intracellular cAMP
4 | CCCCCCCCCCCCCC(=O)O[C@@H]1[C@@H](C)[C@@]2(O)[C@@H](C=C(CO)C[C@]3(O)C(=O)C(C)=C[C@@H]23)[C@@H]2C(C)(C)[C@]12OC(C)=O [PMA, phorbol-12-myristate-13-acetate, reference compound] | – | substantially induced phosphorylation of ERK1/2 | –
5 | YAADHDVGSELPPEGVLGALLRV-NH2 [Tyr-PEN, human PEN with a tyrosine added at the aminoterminal end] | – | – | concentration-dependent displacement of radioligand ([1]; unlabeled peptide 1 pM to 1 µM versus 125I-PEN-Tyr or 125I-Tyr-PEN, HEK293 wild-type and GPR83 / GPR83del with or without HA tag): neither of these different assay conditions led to a PEN-GPR83 binding signal above background or a concentration-dependent displacement of the radioligand
6 | ^125I-Tyr-PEN: Tyr-PEN labelled with 125I using the chloramine-T method | neither of these different assay conditions led to a PEN-GPR83 binding signal above background | – | –
